Laboratory results from PubChem BioAssay AID1996.
Converted amounts (≈) assume the structure as drawn.

Conditions: buffer; pH 7.4; 200.0 µM
For O=C(COC(=O)C12CC3CC(CC(Br)(C3)C1)C2)Nc1c(F)cccc1F, the solubility kinetic was 16.1 µg/mL (≈ 37.6 µM).
For O=C(C[n+]1ccc(C(=O)c2ccccc2)cc1)Nc1ccccc1OC(F)F.[Cl-], the solubility kinetic was 59.4 µg/mL.
O=C1S/C(=C\c2cccs2)C(=O)N1c1ccc(O)cc1 showed a solubility kinetic of less than 0.6 µg/mL.
O=C(CC1SC(N2CCOCC2)=NC1=O)Nc1ccc(Cl)c(C(F)(F)F)c1 (stereo not given) gave a solubility kinetic of 4.4 µg/mL (≈ 10.4 µM).
Molecule O.S=c1nc[nH]c2nc[nH]c12 has a solubility kinetic greater than 25.5 µg/mL.
Cc1cc([N+](=O)[O-])c2ccccc2[n+]1[O-] gave a solubility kinetic greater than 30.6 µg/mL.
Molecule O=C(COC(=O)c1cccnc1Cl)NCc1ccc(F)cc1 has a solubility kinetic greater than 48.4 µg/mL.
In the case of COc1ccc(NC(=O)CSc2nc3nc(C)cc(C)c3c(=O)[nH]2)cc1OC, the solubility kinetic is reported as 6.5 µg/mL (≈ 16.2 µM).
In the case of COc1ccc(OCCn2ccnc2)cc1, the solubility kinetic is reported as 26.4 µg/mL (≈ 121 µM).
Molecule O=C(Cc1ccc(F)cc1)NC1CCSC1=O (stereo not given) has a solubility kinetic greater than 38 µg/mL.
With COC(=O)c1cccc(NC(=S)Nc2ccccc2Cl)c1 the solubility kinetic was 41.4 µg/mL (≈ 129 µM).
Work on COc1ccc(NC(=O)C(=S)N2CCCC2)cc1 yielded a solubility kinetic greater than 39.7 µg/mL.
Nc1ccc(C(=O)[O-])cc1.O.[Na+] gave a solubility kinetic greater than 26.6 µg/mL.
CCCCCCOc1ccc(C(CC(=O)NC)C(=O)O)cc1 (stereo not given) gave a solubility kinetic greater than 46.1 µg/mL.
With O=[N+]([O-])c1ccccc1Nc1nc(-c2cccnc2)cs1 the solubility kinetic was 1.7 µg/mL (≈ 5.7 µM).
Cc1ccc(-n2c(C)cc(=O)cc2C)cc1[N+](=O)[O-] gave a solubility kinetic greater than 38.7 µg/mL.
CN1CCN(c2ccc(CNS(=O)(=O)c3ccsc3)cc2)CC1 gave a solubility kinetic of 22.7 µg/mL (≈ 64.6 µM).
Work on O=C(CCNC(=O)c1ccccc1Cl)NCc1ccco1 yielded a solubility kinetic greater than 46 µg/mL.
With COc1ccc(N2CC2c2ccncc2)cc1 (stereo not given) the solubility kinetic was greater than 33.9 µg/mL.
O=C1CC(N2CCN(c3ccc(F)cc3)CC2)C(=O)N1Cc1ccccc1 (stereo not given) showed a solubility kinetic of 48.2 µg/mL (≈ 131 µM).
In the case of O=C(Nc1sc2c(c1C(=O)O)CCC2)C(=O)N1CCOCC1, the solubility kinetic is reported as greater than 48.7 µg/mL.
COc1ccc(-c2c(C#N)c(N)nc3c2CCC3)cc1 showed a solubility kinetic of 0.3 µg/mL (≈ 1.13 µM).
For O=C(CNC(=O)Cc1cccc2ccccc12)NCc1ccccc1F, the solubility kinetic was 36.5 µg/mL (≈ 104 µM).
Molecule Nc1nc(N)n(-c2ccccc2)c(=Nc2ccccc2)n1 has a solubility kinetic greater than 41.7 µg/mL.
Fc1ccc(NC(=S)Nc2cccnc2)cc1Cl showed a solubility kinetic greater than 42.3 µg/mL.
Work on CCC(CC)C(=O)Nc1nnc(SCC(=O)NC(C)(C)C)s1 yielded a solubility kinetic greater than 51.7 µg/mL.
Work on CCC(C)NC(=O)Cn1c(=O)sc2ccccc21 (stereo not given) yielded a solubility kinetic of 33.6 µg/mL (≈ 127 µM).
In the case of CCC(NC(=O)C1CCCC1)c1ccc(C)cc1 (stereo not given), the solubility kinetic is reported as 34.8 µg/mL (≈ 142 µM).
Molecule O=C(CN1CCN(Cc2cccc(F)c2)CC1)NCc1ccccc1 has a solubility kinetic of 43.1 µg/mL (≈ 126 µM).
For CC(C)OCCCNC(=O)C1CC(=O)N(CCc2ccccc2)C1 (stereo not given), the solubility kinetic was 48.9 µg/mL (≈ 147 µM).
Work on C1CNC(C23CC4CC(CC(C4)C2)C3)=N1 yielded a solubility kinetic greater than 30.6 µg/mL.
In the case of Cc1csc(NC(=O)CSc2nccn2Cc2ccco2)n1, the solubility kinetic is reported as 47.7 µg/mL (≈ 143 µM).
CCCc1ccc(-c2ccc(-c3noc(-c4ccncc4)n3)cc2)nc1 gave a solubility kinetic of less than 0.2 µg/mL.
In the case of COC(=O)c1ccc(COc2ccccc2/C=N/O)o1, the solubility kinetic is reported as greater than 41.3 µg/mL.
C/C(=C\C(=O)c1ccc(Cl)s1)N(C)C gave a solubility kinetic greater than 34.5 µg/mL.
With On1c(-c2ccccc2Cl)nc2ncccc21 the solubility kinetic was greater than 36.9 µg/mL.
With Cc1ccc(C(=O)N2CCCCC2)cc1S(=O)(=O)N1CCCC1 the solubility kinetic was greater than 50.5 µg/mL.
In the case of O=[N+]([O-])c1cc(CN2CCCCCC2)ccc1O, the solubility kinetic is reported as 33.3 µg/mL (≈ 133 µM).
With O=C(/C=C/Nc1ccc(S(=O)(=O)Nc2ncccn2)cc1)c1ccc2ccccc2c1 the solubility kinetic was 2 µg/mL (≈ 4.65 µM).
CC(C)C(NC(=O)c1ccc(Cl)cc1)C(=O)NCC1CCCO1 (stereo not given) showed a solubility kinetic greater than 50.8 µg/mL.
Cc1cc(C(=O)N2CCN(c3ccccc3O)CC2)c(C)o1 showed a solubility kinetic greater than 45.1 µg/mL.
For COc1cc2c(cc1OC)CN(C(=O)CCC(=O)c1ccc(F)cc1)CC2, the solubility kinetic was greater than 55.7 µg/mL.
For COc1cccc(C(=O)NCCCNC(=O)c2cccc(OC)c2)c1, the solubility kinetic was greater than 51.4 µg/mL.
Molecule Cc1ccc(OCC(O)CN2CCOCC2)c(C)c1.Cl (stereo not given) has a solubility kinetic greater than 45.3 µg/mL.
COc1ccc(CCN=Cc2ccc(O)cc2)cc1OC showed a solubility kinetic of 40.1 µg/mL (≈ 141 µM).
In the case of COc1cccc(/C=C/C(=O)OCC(=O)NCCCc2ccccc2)c1OC, the solubility kinetic is reported as 5.6 µg/mL (≈ 14.6 µM).
With CCCCN(C(=O)C1=NN(c2ccccc2)C(=O)CC1)c1c(N)n(CCC)c(=O)[nH]c1=O the solubility kinetic was greater than 66.1 µg/mL.
Molecule O=C(CN1C(=O)COc2ccccc21)N1CCN(C2CCCCC2)CC1 has a solubility kinetic of 49.2 µg/mL (≈ 138 µM).
In the case of COC(=O)c1cc(C(=O)N2CCOCC2)cc([N+](=O)[O-])c1, the solubility kinetic is reported as greater than 44.1 µg/mL.
In the case of O=C(Nc1ccccc1C(=O)N1CCCCC1)c1cccs1, the solubility kinetic is reported as greater than 47.2 µg/mL.
Cc1ccccc1CSc1nc2ccccc2c(=O)n1C gave a solubility kinetic of 1.5 µg/mL (≈ 5.06 µM).
Work on CCC(OC(=O)c1nsc(Cl)c1Cl)C(=O)NCC1CCCO1 (stereo not given) yielded a solubility kinetic of 52.8 µg/mL (≈ 144 µM).
Cc1cnc(NC(=O)c2ccccn2)s1 gave a solubility kinetic of 29.3 µg/mL (≈ 134 µM).
In the case of CCC1(CC)N=C(c2ccccc2)C(=S)N1, the solubility kinetic is reported as greater than 34.9 µg/mL.
Molecule Cc1ccc(NC(=O)CN2CCCC2c2cccn2C)c(Br)c1 (stereo not given) has a solubility kinetic of 11.4 µg/mL (≈ 30.3 µM).
In the case of COC(=O)c1sccc1NC(=O)Nc1ccc(C)cc1, the solubility kinetic is reported as 10.1 µg/mL (≈ 34.8 µM).
Cc1cc(C)nc(/N=C(\N)Nc2cccc(OCc3ccccc3)c2)n1 showed a solubility kinetic greater than 52.1 µg/mL.
For O=C(NC(=S)Nc1ccccc1C(=O)O)c1cncc(Br)c1, the solubility kinetic was greater than 57 µg/mL.
In the case of Cc1ccc(S(=O)(=O)c2c(C)cc(C)nc2N2CCCC2)cc1, the solubility kinetic is reported as 1.2 µg/mL (≈ 3.63 µM).
With CCOC(=O)c1cn(C2CC2)c2c(F)c(NCCCN(C)C)c(F)cc2c1=O the solubility kinetic was 53.5 µg/mL (≈ 136 µM).
